Like-named read-outs stand apart in the source and are kept apart here.
Key:
HUVEC cells [1] = assay: EF-induced elongation of endothelial cells (long:short axis ratio); format: cell-based, human; conditions: versus control
Experimental: HUVEC cells were seeded in a trough formed by two parallel (1 cm apart) strips of glass coverslip (No. 1, length of 22 mm) fixed to the base of the dish with silicone grease. Scratch lines were made perpendicular to the long axis of the chamber with a fine sterile needle and used as reference marks for directed cell migration. Cells were incubated for 24-48 hours (37° C., 5% CO2) before a roof coverslip was applied and sealed with silicone grease. The final dimensions of the chamber, through which current was passed, were 22×10×0.2 mm. Agar-salt bridges not less than 15 cm long were used to connect silver/silver-chloride electrodes in beakers of Steinberg's solution (58 mM NaCl, 0.67 mM KCl, 0.44 mM Ca(NO3)2, 1.3 mM MgSO4, 4.6 mM Trizma base, pH 7.8-8.0), to pools of excess culture medium at either side of the chamber. Field strengths were measured directly at the beginning of, the end of and during each experiment. No fluctuations in field strength were observed. […] (50 μM), the Rho kinase inhibitor Y27632 (50 μM), both Akt and Rho kinase inhibitors (10 μM each) or latrunculin (50 nM) for 1 hour before EF stimulation. The same concentration of drug was present during EF exposure in a CO2 incubator.
A series of images was taken with an image analyser immediately before EF exposure and at 4, 8 and 24 hours of EF exposure. Cell orientation was quantified as an orientation index (Oi), which is defined as Oi=cos 2(α), where a is the angle formed by the long axis of a cell with a line drawn perpendicular to the field lines. A cell with its long axis parallel to the vector of the EF will have an Oi of −1, and a cell with its long axis exactly perpendicular to the EF vector will have an Oi of +1. […] The significance of this two-dimensional orientation distribution against randomness was calculated using Rayleigh's distribution. A long:short axis ratio was calculated for assessment of elongation.
HUVEC cells elongated dramatically in an EF. […] We quantified the elongation of the cells using a long:short axis ratio. […]

HUVEC cells [2] = assay: EF-induced reorientation of endothelial cells (orientation index Oi); format: cell-based, human
Experimental: HUVEC cells were seeded in a trough formed by two parallel (1 cm apart) strips of glass coverslip (No. 1, length of 22 mm) fixed to the base of the dish with silicone grease. Scratch lines were made perpendicular to the long axis of the chamber with a fine sterile needle and used as reference marks for directed cell migration. Cells were incubated for 24-48 hours (37° C., 5% CO2) before a roof coverslip was applied and sealed with silicone grease. The final dimensions of the chamber, through which current was passed, were 22×10×0.2 mm. Agar-salt bridges not less than 15 cm long were used to connect silver/silver-chloride electrodes in beakers of Steinberg's solution (58 mM NaCl, 0.67 mM KCl, 0.44 mM Ca(NO3)2, 1.3 mM MgSO4, 4.6 mM Trizma base, pH 7.8-8.0), to pools of excess culture medium at either side of the chamber. Field strengths were measured directly at the beginning of, the end of and during each experiment. […] (50 μM), the Rho kinase inhibitor Y27632 (50 μM), both Akt and Rho kinase inhibitors (10 μM each) or latrunculin (50 nM) for 1 hour before EF stimulation. The same concentration of drug was present during EF exposure in a CO2 incubator.
A series of images was taken with an image analyser immediately before EF exposure and at 4, 8 and 24 hours of EF exposure. Cell orientation was quantified as an orientation index (Oi), which is defined as Oi=cos 2(α), where a is the angle formed by the long axis of a cell with a line drawn perpendicular to the field lines. A cell with its long axis parallel to the vector of the EF will have an Oi of −1, and a cell with its long axis exactly perpendicular to the EF vector will have an Oi of +1. A randomly oriented population of cells will have an average Oi {defined as [Σn cos 2(α)]÷n} of 0. The significance of this two-dimensional orientation distribution against randomness was calculated using Rayleigh's distribution. A long:short axis ratio was calculated for assessment of elongation.

[3] = test system: HaCaT human keratinocytes; assay: Scratch assay, keratinocyte migration, Example 3; format: cell-based; conditions: LLEC-treated cells, N-acetylcysteine 5 mM 1 h pretreatment, IGF-1R inhibitor picropodophyllin 50 nM
[4] = drug present 1 hour before and during EF exposure

Compound | long:short axis ratio / elongation response in EF-treated cells (HUVEC cells [1]) | orientation response of cells in an EF (HUVEC cells [2]; [4]) | further results
1-L-6-hydroxymethyl-chiro-inositol 2-[(R)-2-O-methyl-3-O-octadecylcarbonate] [Akt inhibitor] | significantly decreased | significantly decreased | –
COc1cc([C@@H]2c3cc4c(cc3[C@H](O)[C@H]3COC(=O)[C@@H]23)OCO4)cc(OC)c1OC [IGF-1R inhibitor, picropodophyllin] | – | – | LLEC-increased keratinocyte migration in presence of blocker [3]: attenuated the increased keratinocyte migration
C/C1=C/C(=O)O[C@@H]2C[C@@H](CC[C@H](C)/C=C\C=C\CC1)O[C@@](O)([C@@H]1CSC(=O)N1)C2 [Latrunculin A] | completely abolished | suppressed the orientation response significantly | –
CC(=O)N[C@@H](CS)C(=O)O [N-Acetyl Cysteine] | – | – | LLEC-increased keratinocyte migration in presence of blocker [3]: failed to reproduce the increased migration; LLEC-increased keratinocyte migration in presence of blocker ([3]; listed as N-acetyl cysteine): prevented
N#CC(=C(/N)Sc1ccccc1N)/C(C#N)=C(\N)Sc1ccccc1N [U0126] | – | – | orientation index Oi (HUVEC cells [2]): 0.33±0.03; orientation response of cells in an EF (HUVEC cells [2]): decreased the orientation to a similar extent
COc1cc2ncnc(Nc3ccc(Cl)cc3F)c2cc1OC [VEGFR inhibitor, 4-[(4′-chloro-2′-fluoro)phenylamino]-6,7-dimethoxyquinazoline] | – | completely abolished | –
C[C@@H](N)[C@H]1CC[C@H](C(=O)Nc2ccncc2)CC1 [Y27632] | significantly decreased | decreased the orientation response significantly | –

Source: US11832662B2, “Methods and devices for preventing viral transmission” (priority 2020, dated 2023)
